According to ChEMBL document CHEMBL1201862, “PubChem BioAssay data set” (2004):
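1) Cells in 96-well plates. 2) Compound, 48 h, 5 concentrations. 3) Linear interpolation between surrounding doses. 4) Unreached endpoint = highest concentration. The concentration for 50% growth inhibition is given as GI50.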 Calls of active or inactive are those of the source. Cut-off read from the data, not from the text of the source: active = GI50 up to about 1.1 µM and inactive = higher.

Assays:
Experiment in all cases: NCI tumour cell line growth inhibition, 48 h
OVCAR-3 = tested on: OVCAR-3
MOLT-4 = tested on: MOLT-4
SW-620 = tested on: SW-620
SF-295 = tested on: SF-295
M14 = tested on: M14
UACC-257 = tested on: UACC-257
HCT-116 = tested on: HCT-116
OVCAR-5 = tested on: OVCAR-5
K562 = tested on: K562
SK-MEL-2 = tested on: SK-MEL-2
HT-29 = tested on: HT-29
NCI-H460 = tested on: NCI-H460
COLO 205 = tested on: COLO 205
SK-MEL-28 = tested on: SK-MEL-28
NCI-H522 = tested on: NCI-H522
HOP-92 = tested on: HOP-92
MCF7 = tested on: MCF7
SK-OV-3 = tested on: SK-OV-3
A549 = tested on: A549
HOP-62 = tested on: HOP-62

| SMILES | GI50 (OVCAR-3) | GI50 (MOLT-4) | GI50 (SW-620) | GI50 (SF-295) | GI50 (M14) | GI50 (UACC-257) | GI50 (HCT-116) | GI50 (OVCAR-5) | GI50 (K562) | GI50 (SK-MEL-2) | GI50 (HT-29) | GI50 (NCI-H460) | GI50 (COLO 205) | GI50 (SK-MEL-28) | GI50 (NCI-H522) | GI50 (HOP-92) | GI50 (MCF7) | GI50 (SK-OV-3) | GI50 (A549) | GI50 (HOP-62) |
| --- | --- | --- | --- | --- | --- | --- | --- | --- | --- | --- | --- | --- | --- | --- | --- | --- | --- | --- | --- | --- |
| O=C1c2cc(CCl)sc2C(=O)c2ccsc21 | 0.207 µM (active) | 0.179 µM (active) | 0.195 µM (active) | 0.0966 µM (active) | < 0.0187 µM (active) | 0.181 µM (active) | 0.189 µM (active) | 1.85 µM (inactive) | 0.158 µM (active) | 0.153 µM (active) | 1.16 µM (inactive) | 1.31 µM (inactive) | 1.37 µM (inactive) | 0.0634 µM (active) | 0.422 µM (active) | 0.427 µM (active) | 0.197 µM (active) | 1.85 µM (inactive) | 0.199 µM (active) |  |
| O=C(Nc1cc(C(=O)Nc2cccc(S(=O)(=O)O)c2)cc(C(=O)Nc2cccc(S(=O)(=O)O)c2)c1)c1cccc(C(=O)Nc2cc(C(=O)Nc3cccc(S(=O)(=O)O)c3)cc(C(=O)Nc3cccc(S(=O)(=O)O)c3)c2)c1 | > 100 µM (inactive) | > 100 µM (inactive) | > 100 µM (inactive) | > 100 µM (inactive) | 97.1 µM (inactive) | > 100 µM (inactive) | > 100 µM (inactive) | > 100 µM (inactive) | 25.6 µM (inactive) | > 100 µM (inactive) | > 100 µM (inactive) | > 100 µM (inactive) | > 100 µM (inactive) | > 100 µM (inactive) | > 100 µM (inactive) |  | > 100 µM (inactive) | > 100 µM (inactive) | > 100 µM (inactive) | > 100 µM (inactive) |
| CN(c1cn(C2CC[C@@H](CO)O2)c(=O)[nH]c1=O)C1CCCCC1 (some centres not stated) | > 100 µM (inactive) | > 100 µM (inactive) | > 100 µM (inactive) | > 100 µM (inactive) | > 100 µM (inactive) |  | > 100 µM (inactive) | > 100 µM (inactive) | > 100 µM (inactive) |  | > 100 µM (inactive) | > 100 µM (inactive) | > 100 µM (inactive) | > 100 µM (inactive) | > 100 µM (inactive) | > 100 µM (inactive) | > 100 µM (inactive) | > 100 µM (inactive) | > 100 µM (inactive) | > 100 µM (inactive) |
| COC(=O)Cc1cccc2c1CCC2=O | > 100 µM (inactive) | > 100 µM (inactive) | > 100 µM (inactive) | > 100 µM (inactive) | > 100 µM (inactive) | > 100 µM (inactive) | > 100 µM (inactive) | > 100 µM (inactive) | > 100 µM (inactive) |  | > 100 µM (inactive) | > 100 µM (inactive) | > 100 µM (inactive) | > 100 µM (inactive) | > 100 µM (inactive) | > 100 µM (inactive) | > 100 µM (inactive) | > 100 µM (inactive) | > 100 µM (inactive) | > 100 µM (inactive) |
| Cc1ccc(C(=O)/C=C2\Nc3ccccc3S\C2=N\CS(=O)(=O)c2ccc(C)cc2)cc1 | 4.33 µM (inactive) | > 10 µM (inactive) | > 10 µM (inactive) | > 10 µM (inactive) | > 10 µM (inactive) | > 10 µM (inactive) | > 10 µM (inactive) | > 10 µM (inactive) | > 10 µM (inactive) |  | > 10 µM (inactive) |  | > 10 µM (inactive) | > 10 µM (inactive) | 5.38 µM (inactive) | > 10 µM (inactive) | 4.3 µM (inactive) | 6.89 µM (inactive) | > 10 µM (inactive) | 7.8 µM (inactive) |
| O=C1NC(Nc2ccccc2)=NC(C(F)(F)F)(C(F)(F)F)N1 | 37.9 µM (inactive) | 54.5 µM (inactive) | 71.8 µM (inactive) | 37 µM (inactive) | 21.4 µM (inactive) | 59.7 µM (inactive) | 34.6 µM (inactive) | 42.8 µM (inactive) | 49.3 µM (inactive) | 19.9 µM (inactive) | 56.2 µM (inactive) | 32.8 µM (inactive) | 33.4 µM (inactive) | 47.2 µM (inactive) |  | 20.7 µM (inactive) | 37.9 µM (inactive) | 64 µM (inactive) | 40.9 µM (inactive) | 53.3 µM (inactive) |
| O=C1Nc2c(Cl)cc(Cl)cc2/C1=N/N=C/c1ccccc1O | 16.3 µM (inactive) | 20.7 µM (inactive) | 22 µM (inactive) | 22.5 µM (inactive) | 23.1 µM (inactive) | 23.5 µM (inactive) | 17.5 µM (inactive) | 21.5 µM (inactive) | 21.2 µM (inactive) | 19.5 µM (inactive) | 20.4 µM (inactive) | 14.7 µM (inactive) | 16.4 µM (inactive) | 20.1 µM (inactive) |  | 27.1 µM (inactive) | 30 µM (inactive) | 30.6 µM (inactive) | 29.2 µM (inactive) | 17.2 µM (inactive) |
| O=C(N/N=C(COc1ccc([N+](=O)[O-])cc1)\N=C\c1ccncc1)c1ccncc1 | > 100 µM (inactive) | > 100 µM (inactive) | > 100 µM (inactive) | > 100 µM (inactive) | > 100 µM (inactive) | > 100 µM (inactive) | > 100 µM (inactive) | > 100 µM (inactive) | > 100 µM (inactive) | > 100 µM (inactive) | > 100 µM (inactive) | > 100 µM (inactive) | > 100 µM (inactive) | > 100 µM (inactive) | > 100 µM (inactive) |  | > 100 µM (inactive) | > 100 µM (inactive) | > 100 µM (inactive) | > 100 µM (inactive) |
| CCCC(=O)NC1=C(NCC)C(=O)c2ccccc2C1=O | 34.2 µM (inactive) | 73.3 µM (inactive) | 33.4 µM (inactive) | > 100 µM (inactive) | > 10 µM (inactive) | 39.4 µM (inactive) | 43.7 µM (inactive) | > 100 µM (inactive) | 50.8 µM (inactive) |  | 44.1 µM (inactive) | > 100 µM (inactive) | 36.6 µM (inactive) | 95.7 µM (inactive) | 25.9 µM (inactive) | > 100 µM (inactive) | 63.5 µM (inactive) | > 100 µM (inactive) | > 100 µM (inactive) | > 100 µM (inactive) |
| CC(=O)NC(C)(C)C1CCC(C)=C(c2ccccc2)C1 (configuration not stated) | > 100 µM (inactive) | > 100 µM (inactive) | > 100 µM (inactive) | > 100 µM (inactive) | > 100 µM (inactive) | > 100 µM (inactive) | 87.5 µM (inactive) | > 100 µM (inactive) | 42 µM (inactive) |  | > 100 µM (inactive) | > 100 µM (inactive) | > 100 µM (inactive) | > 100 µM (inactive) | 88.7 µM (inactive) | 19.5 µM (inactive) | > 100 µM (inactive) | > 100 µM (inactive) | > 100 µM (inactive) | > 100 µM (inactive) |
| COc1cc(OC)c2c(=O)c(OC)c(-c3ccc4c(c3)OCO4)oc2c1 | > 100 µM (inactive) | > 100 µM (inactive) | > 100 µM (inactive) | 22.2 µM (inactive) | > 100 µM (inactive) | > 100 µM (inactive) | 44.4 µM (inactive) | > 100 µM (inactive) | > 100 µM (inactive) | 19.1 µM (inactive) | > 100 µM (inactive) | > 100 µM (inactive) | > 100 µM (inactive) | > 100 µM (inactive) | 38.3 µM (inactive) |  | > 100 µM (inactive) | 22.8 µM (inactive) | > 100 µM (inactive) | 23.5 µM (inactive) |
| N=C(N)NS(=O)(=O)c1ccc(NCc2cccc3c(=O)c4ccc(Cl)cc4oc23)cc1 | > 8.47 µM (inactive) | 3.57 µM (inactive) | 5.41 µM (inactive) | > 9.35 µM (inactive) | 6.7 µM (inactive) | 11.1 µM (inactive) | 2.99 µM (inactive) | > 10.1 µM (inactive) | 2.84 µM (inactive) | > 10.4 µM (inactive) | 5.71 µM (inactive) | 3.15 µM (inactive) | > 11.6 µM (inactive) | > 12.2 µM (inactive) |  | 3.86 µM (inactive) | 7.45 µM (inactive) | > 10.3 µM (inactive) | > 6.75 µM (inactive) | > 10.2 µM (inactive) |
| C/C(=N\NC(N)=O)C(CN1CCOCC1)C(c1ccccc1)c1c(O)c2ccccc2oc1=O (configuration not stated) | > 100 µM (inactive) | > 100 µM (inactive) | > 100 µM (inactive) |  | > 100 µM (inactive) | > 100 µM (inactive) | > 100 µM (inactive) | > 100 µM (inactive) | > 100 µM (inactive) | > 100 µM (inactive) | > 100 µM (inactive) |  | > 100 µM (inactive) | > 100 µM (inactive) | > 100 µM (inactive) | > 100 µM (inactive) | > 100 µM (inactive) | > 100 µM (inactive) | > 100 µM (inactive) |  |
| O=C(O)CC(NC(=O)Nc1ccc([N+](=O)[O-])cc1)C(=O)Nc1ccc([N+](=O)[O-])cc1 (configuration not stated) | > 100 µM (inactive) | > 100 µM (inactive) | > 100 µM (inactive) | > 100 µM (inactive) | > 100 µM (inactive) | > 100 µM (inactive) | > 100 µM (inactive) | > 100 µM (inactive) | > 100 µM (inactive) | > 100 µM (inactive) | > 100 µM (inactive) | > 100 µM (inactive) | > 100 µM (inactive) | > 100 µM (inactive) | > 100 µM (inactive) |  | > 100 µM (inactive) | > 100 µM (inactive) | > 100 µM (inactive) | > 100 µM (inactive) |
